US10266609B2, “Immunomodulating beta-1,6-D-glucans” (Innate Biotherapeutics, LLC, priority 2014, dated 2019)

Test system: Anti-β-1,6-Glucan IgG antibodies (affinity purified from IVIG, Baxter)
Assay: ELISA: binding of oligosaccharides to anti-β-1,6-glucan antibodies; also: key: a plus (+) sign indicates that the glucan was active in the assay; a minus (−) sign indicates that the glucan was not active; the '+/−' symbol indicates inconclusive results
Settings: plate coated with oligosaccharide in PBS; 40 ug/mL anti-Beta 1,6 Glucan IgG; anti-human IgG-HRP, TMB, absorbance at 620 nm
Outline: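 Oligosaccharides coated overnight at 4° C in PBS, casein-blocked 1 h at room temperature, then incubated 45 min with 40 ug/mL anti-β-1,6-glucan IgG. Bound IgG detected with anti-human IgG-HRP (1:5000, 45 min, dark) and TMB; absorbance at 620 nm read every 1 min for 60 min.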

| Compound | ELISA assay data: glucan active in detection of anti-beta glucan IgG |
| --- | --- |
| [N-]=[N+]=NCCO[C@@H]1OC(CO[C@@H]2OC(CO[C@@H]3OC(CO[C@@H]4OC(CO[C@@H]5OC(CO[C@@H]6O[C@H](CO)[C@@H](O)[C@H](O)[C@H]6O)[C@@H](O)[C@H](O)[C@H]5O)[C@@H](O)[C@H](O)[C@H]4O)[C@@H](O)[C@H](O)[C@H]3O)[C@@H](O)[C@H](O)[C@H]2O)[C@@H](O)[C@H](O)[C@H]1O (stereo partly drawn) [β-O(CH2)2N3, n=6, 2-Azidoethyl [O-β-D-glucopyranosyl-1,6]5-β-D-glucopyranoside] | + |
| O=CCCCCO[C@@H]1O[C@H](CO[C@@H]2O[C@H](CO[C@@H]3O[C@H](CO[C@@H]4O[C@H](CO)[C@@H](O)[C@H](O)[C@H]4O)[C@@H](O)[C@H](O)[C@H]3O)[C@@H](O)[C@H](O)[C@H]2O)[C@@H](O)[C@H](O)[C@H]1O [β-O(CH2)4C═O, n=4, 1-O-[4-oxybutoxy]-6-O—[O-β-D-glucopyranosyl-(1,6)]3-β-D-glucopyranoside] | + |
| N#C[C@H](O[C@@H]1O[C@H](CO[C@@H]2O[C@H](CO)[C@@H](O)[C@H](O)[C@H]2O)[C@@H](O)[C@H](O)[C@H]1O)c1ccccc1 [β-OCH(CN)Ph, n=2, amygdalin, reference compound] | − |
| N-[6-[(O-(β-D-glucopyranosyl-(1,6))3-β-D-glucopyranosyl](2RS,3R,4R,5R)-2,3,4,5-tetrahydroxyhexyl]-4-piperidylacetic acid [4-piperidine(CH2)CO2H, n=4] | + |
| N-[6-[(O-(β-D-glucopyranosyl-(1,6))4-β-D-glucopyranosyl](2RS,3R,4R,5R)-2,3,4,5-tetrahydroxyhexyl]-4-piperidylacetic acid [4-piperidine(CH2)CO2H, n=5] | + |
| [(2R,3R,4R,5RS)-2,3,4,5-tetrahydroxy-6-[(N-methyl-N-(5-aminopentyl))amino]hexyl [O-β-D-glucopyranosyl-1,6]6-β-D-glucopyranoside [N(Me),N(CH2)5NH2, n=7] | + |
| [O-β-D-glucopyranosyl-1,6-]5-D-glucose [OH, n=6] | + |
| [O-β-D-glucopyranosyl-1,6]6-D-glucopyranoside [OH, n=7] | + |
